Drawing on PubChem BioAssay AID1259407 (Chemical Carcinogenesis Research Information System (CCRIS), 2018), this text covers mutagenic call for nine molecules.

This series has as its system CCRIS mutagenicity, Ames/micronucleus/aberration tests. The series is described as follows: CCRIS mutagenicity studies.
The mark [1] stands for this setting: Test System: AMES SALMONELLA TYPHIMURIUM, Strain/Indicator: TA98, Metabolic Activation: NONE, Method: STANDARD PLATE.
Where [2] appears, read: Test System: AMES SALMONELLA TYPHIMURIUM, Strain/Indicator: TA100, Metabolic Activation: NONE, Method: STANDARD PLATE.
Where [3] appears, read: Test System: AMES SALMONELLA TYPHIMURIUM, Strain/Indicator: TA1537, Metabolic Activation: NONE, Method: STANDARD PLATE.
The mark [4] stands for this setting: Test System: AMES SALMONELLA TYPHIMURIUM, Strain/Indicator: TA98, Metabolic Activation: RAT, LIVER, S-9, AROCLOR 1254, Method: STANDARD PLATE.
Where [5] appears, read: Test System: AMES SALMONELLA TYPHIMURIUM, Strain/Indicator: TA100, Metabolic Activation: RAT, LIVER, S-9, AROCLOR 1254, Method: STANDARD PLATE.
The mark [6] stands for this setting: Test System: AMES SALMONELLA TYPHIMURIUM, Strain/Indicator: TA102, Metabolic Activation: NONE, Method: STANDARD PLATE.
Setting [7] is: Test System: AMES SALMONELLA TYPHIMURIUM, Strain/Indicator: TA102, Metabolic Activation: RAT, LIVER, S-9, AROCLOR 1254, Method: STANDARD PLATE.

Calls of active or inactive are those of the source. No rule for the calls is given here.

Regarding `Cc1ccccc1N=Nc1ccc(N(C)C)cc1`, the mutagenic call was “inactive; negative” (Test System: AMES SALMONELLA TYPHIMURIUM, Strain/Indicator: TA98, Metabolic Activation: HAMSTER, LIVER, S-9, AROCLOR 1254 (10%), Method: PREINCUBATION); “inactive; negative” (Test System: AMES SALMONELLA TYPHIMURIUM, Strain/Indicator: TA98, Metabolic Activation: NONE, Method: PREINCUBATION); “inactive; negative” (Test System: AMES SALMONELLA TYPHIMURIUM, Strain/Indicator: TA98, Metabolic Activation: RAT, LIVER, S-9, AROCLOR 1254 (10%), Method: PREINCUBATION); “inactive; negative” (Test System: AMES SALMONELLA TYPHIMURIUM, Strain/Indicator: TA100, Metabolic Activation: HAMSTER, LIVER, S-9, AROCLOR 1254 (10%), Method: PREINCUBATION); “inactive; negative” (Test System: AMES SALMONELLA TYPHIMURIUM, Strain/Indicator: TA100, Metabolic Activation: NONE, Method: PREINCUBATION); “inactive; negative” (Test System: AMES SALMONELLA TYPHIMURIUM, Strain/Indicator: TA100, Metabolic Activation: RAT, LIVER, S-9, AROCLOR 1254 (10%), Method: PREINCUBATION). The mutagenic call is “inactive; negative” (Test System: AMES SALMONELLA TYPHIMURIUM, Strain/Indicator: TA1535, Metabolic Activation: HAMSTER, LIVER, S-9, AROCLOR 1254 (10%), Method: PREINCUBATION); “inactive; negative” (Test System: AMES SALMONELLA TYPHIMURIUM, Strain/Indicator: TA1535, Metabolic Activation: NONE, Method: PREINCUBATION); “inactive; negative” (Test System: AMES SALMONELLA TYPHIMURIUM, Strain/Indicator: TA1535, Metabolic Activation: RAT, LIVER, S-9, AROCLOR 1254 (10%), Method: PREINCUBATION); “inactive; negative” (Test System: AMES SALMONELLA TYPHIMURIUM, Strain/Indicator: TA1537, Metabolic Activation: HAMSTER, LIVER, S-9, AROCLOR 1254 (10%), Method: PREINCUBATION); “inactive; negative” (Test System: AMES SALMONELLA TYPHIMURIUM, Strain/Indicator: TA1537, Metabolic Activation: NONE, Method: PREINCUBATION); “inactive; negative” (Test System: AMES SALMONELLA TYPHIMURIUM, Strain/Indicator: TA1537, Metabolic Activation: RAT, LIVER, S-9, AROCLOR 1254 (10%), Method: PREINCUBATION). In addition, the mutagenic call was “inactive; negative” (Test System: E. COLI, Strain/Indicator: WP2 UVRA, Metabolic Activation: HAMSTER, LIVER, S-9, AROCLOR 1254, Method: STANDARD PLATE); “inactive; negative” (Test System: E. COLI, Strain/Indicator: WP2 UVRA, Metabolic Activation: HAMSTER, LIVER, S-9, Method: STANDARD PLATE); “inactive; negative” (Test System: E. COLI, Strain/Indicator: WP2 UVRA, Metabolic Activation: MOUSE, LIVER, S-9, AROCLOR 1254, Method: STANDARD PLATE); “inactive; negative” (Test System: E. COLI, Strain/Indicator: WP2 UVRA, Metabolic Activation: MOUSE, LIVER, S-9, Method: STANDARD PLATE); “inactive; negative” (Test System: E. COLI, Strain/Indicator: WP2 UVRA, Metabolic Activation: NONE, Method: STANDARD PLATE); “inactive; negative” (Test System: E. COLI, Strain/Indicator: WP2 UVRA, Metabolic Activation: RAT, LIVER, S-9, AROCLOR 1254, Method: STANDARD PLATE). Further, the mutagenic call (Test System: E. COLI, Strain/Indicator: WP2 UVRA, Metabolic Activation: RAT, LIVER, S-9, Method: STANDARD PLATE) was “inactive; negative”.
`O/C=C/Cc1ccc2c(c1)OCO2`: the mutagenic call (Test System: UDS HUMAN FIBROBLASTS, Strain/Indicator: THY INCORP (NON-S-PHASE), Metabolic Activation: NONE, Method: AUTORADIOGRAPHY) was “active; positive”.
Consider `CC(=O)[O-].CC(=O)[O-].CC(=O)[O-].[Cr+3]`, for which the mutagenic call by setting is: (End Point: IN VITRO MICRONUCLEUS, Test System: CHL/IU CELLS, Metabolic Activation: NONE) “active; positive”; (Test System: UDS RAT HEPATOCYTES, Strain/Indicator: THY INCORP, Metabolic Activation: NONE, Method: AUTORADIOGRAPHY) “inactive; negative”.
In the case of `CC1(C)CCC[C@]2(C)[C@H]3CC=C(C=O)[C@@H](C=O)[C@]3(C)CC[C@@H]12`, the mutagenic call is “inactive; negative” under setting [1]; “inactive; negative” under setting [2]; “inactive; negative” (Test System: AMES SALMONELLA TYPHIMURIUM, Strain/Indicator: TA2637, Metabolic Activation: NONE, Method: STANDARD PLATE).
For `Oc1ccc(Nc2c3ccccc3nc3ccccc23)cc1`, the mutagenic call under setting [3] is “active; positive”.
In the case of `CCNc1nc(Cl)nc(NCC)n1`, the mutagenic call reads like this: (Test System: AMES SALMONELLA TYPHIMURIUM, Strain/Indicator: TA97, Metabolic Activation: NONE, Method: STANDARD PLATE) “inactive; negative”; (Test System: AMES SALMONELLA TYPHIMURIUM, Strain/Indicator: TA97, Metabolic Activation: RAT, LIVER, S-9, AROCLOR 1254, Method: STANDARD PLATE) “inactive; negative”; under setting [1], “inactive; negative”; under setting [4], “inactive; negative”; under setting [2], “inactive; negative”; under setting [5], “inactive; negative”. For the same molecule, the mutagenic call under setting [6] is “inactive; negative” and the mutagenic call under setting [7] was “inactive; negative”.
With `COc1ccccc1NC(=O)c1csc([N+](=O)[O-])c1`, the mutagenic call runs as follows: under setting [1], “active; positive”; under setting [2], “active; positive”.
For the molecule `CCO[Si](OCC)(OCC)OCC`, the mutagenic call is “inactive; negative” (Test System: AMES SALMONELLA TYPHIMURIUM, Strain/Indicator: TA98, Metabolic Activation: HAMSTER, LIVER, S-9, AROCLOR 1254, Method: STANDARD PLATE); “inactive; negative” under setting [1]; “inactive; negative” under setting [4]; “inactive; negative” (Test System: AMES SALMONELLA TYPHIMURIUM, Strain/Indicator: TA100, Metabolic Activation: HAMSTER, LIVER, S-9, AROCLOR 1254, Method: STANDARD PLATE); “inactive; negative” under setting [2]; “inactive; negative” under setting [5]. The mutagenic call runs as follows: (Test System: AMES SALMONELLA TYPHIMURIUM, Strain/Indicator: TA102, Metabolic Activation: HAMSTER, LIVER, S-9, AROCLOR 1254, Method: STANDARD PLATE) “inactive; negative”; under setting [6], “inactive; negative”; under setting [7], “inactive; negative”; (Test System: AMES SALMONELLA TYPHIMURIUM, Strain/Indicator: TA1535, Metabolic Activation: HAMSTER, LIVER, S-9, AROCLOR 1254, Method: STANDARD PLATE) “inactive; negative”; (Test System: AMES SALMONELLA TYPHIMURIUM, Strain/Indicator: TA1535, Metabolic Activation: NONE, Method: STANDARD PLATE) “inactive; negative”; (Test System: AMES SALMONELLA TYPHIMURIUM, Strain/Indicator: TA1535, Metabolic Activation: RAT, LIVER, S-9, AROCLOR 1254, Method: STANDARD PLATE) “inactive; negative”. The mutagenic call is “inactive; negative” (Test System: AMES SALMONELLA TYPHIMURIUM, Strain/Indicator: TA1537, Metabolic Activation: HAMSTER, LIVER, S-9, AROCLOR 1254, Method: STANDARD PLATE); “inactive; negative” under setting [3]; “inactive; negative” (Test System: AMES SALMONELLA TYPHIMURIUM, Strain/Indicator: TA1537, Metabolic Activation: RAT, LIVER, S-9, AROCLOR 1254, Method: STANDARD PLATE); “inactive; negative. reevaluation of results: negative” (Test System: MOUSE LYMPHOMA, Strain/Indicator: L5178Y (TK+/TK-), Metabolic Activation: NONE, Method: SUSPENSION/PLATE); “inactive; negative” (Test System: Mouse lymphoma, Strain/Indicator: L5178 Y (tk+/tk-), Metabolic Activation: Rat, Liver, S-9, Aroclor 1254, Method: Suspension/plate).
Regarding `O=C(O)CCC(=O)Nc1cc(Cl)cc(Cl)c1`, the mutagenic call reads like this: under setting [1], “inactive; negative”; under setting [4], “inactive; negative”; under setting [2], “inactive; negative”; under setting [5], “inactive; negative”.
